Assay results reported in US11040994B2, “Cobalt complexes, process for preparation and use thereof” (COUNCIL OF SCIENTIFIC AND INDUSTRIAL RESEARCH, priority 2017, dated 2021).

How the values were obtained:
full-length Tau = full-length Tau (Homo sapiens, UniProt P10636); conditions: for maximum inhibition of full-length Tau aggregation: 0.05 and 0.1 mg/mL complex
Experimental: Tau was induced to aggregate as described previously with certain modifications. In presence heparin (17,500 Da) in the ratio of 4:1, Tau was polymerized in assembly buffer containing 20 mM BES. pH 7.4, 25 mM NaCl, 1 mM DTT, 0.01% NaN3 and protease inhibitor cocktails. The reaction mixture was incubated at 37° C. and the aggregates formation was monitored by ThS fluorescence, SDS-PAGE and TEM at certain time intervals. The Tau protein was allowed to assemble in presence and absence of compounds in increasing concentrations with constant Tau concentrations of 0.91 mg/mL and 0.28 mg/mL for full-length and four repeat Tau respectively. The changes in the conformation of Tau protein was monitored by CD spectroscopy.
(§1) Thioflavin S fluorescence assay: 5 μl of reaction mixture was diluted with 8 μM ThS in 50 mM ammonium acetate, pH 7.4 and added to 384 well plates in triplicates. Subsequently blank was also prepared for subtracting background fluorescence. The plate was incubated in the dark before measuring ThS fluorescence for 20 minutes, at an emission wavelength of 521 nm by exciting it at 440 nm in Tecan Infinite 200 PRO multimode microplate reader.

[1] = biological target: full-length Tau aggregates (Homo sapiens, UniProt P10636); conditions: highest concentration (range 0.01 mg/mL to 0.1 mg/mL); ThS fluorescence
Chain of full-length Tau aggregates (P10636 1-441 isoform P10636-8): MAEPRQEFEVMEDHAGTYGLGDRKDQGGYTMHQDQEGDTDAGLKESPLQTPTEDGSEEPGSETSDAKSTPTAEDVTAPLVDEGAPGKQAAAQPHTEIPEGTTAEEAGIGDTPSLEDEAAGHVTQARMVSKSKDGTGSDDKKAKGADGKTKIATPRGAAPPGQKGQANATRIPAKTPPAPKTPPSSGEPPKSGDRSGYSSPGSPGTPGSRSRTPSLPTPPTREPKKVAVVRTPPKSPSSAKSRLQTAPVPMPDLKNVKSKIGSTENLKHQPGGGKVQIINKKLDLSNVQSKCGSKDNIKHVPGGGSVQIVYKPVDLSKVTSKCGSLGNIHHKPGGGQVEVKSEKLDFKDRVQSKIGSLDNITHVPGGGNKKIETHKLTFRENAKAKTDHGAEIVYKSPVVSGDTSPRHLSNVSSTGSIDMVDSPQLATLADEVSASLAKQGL
Experimental: (§2) Disaggregation assay: The potency of the metal complexes for disaggregating the preformed Tau aggregates was also analysed. Soluble Tau was dissolved in assembly buffer and was incubated at 37° C. for PHF assembly. The formation of aggregates was analysed by fluorescence assay and SDS-PAGE. Thus formed aggregates were diluted to 0.91 mg/mL final concentration in 20 mM BES buffer, pH 7.4 and this mixture was incubated with increasing concentration of metal complex as discussed earlier.
as §1

Tau PHFs = Tau PHFs (Homo sapiens, UniProt P10636); conditions: for Tau disaggregation by TEM: 0 hour; for Tau PHF disaggregation by TEM: prolonged incubation
Chain of Tau PHFs (P10636 1-441 isoform P10636-8): as above
Experimental: as §2
Transmission Electron Microscopy (TEM): The degree of aggregates formation in presence of the metal complexes was analysed by TEM (Tecnai T-20). The assay mixture was diluted to 1 μM final concentration and spotted on the carbon coated copper grids. This was further stained by 2% uranyl acetate to observe the morphology of aggregates under TEM.

[2] = heparin as inducer, ThS fluorescence

Chain of full-length Tau (P10636 1-441 isoform P10636-8): as above

Molecule | inhibition rate of full-length Tau aggregation (full-length Tau; highest concentration of 0.1 mg/mL, heparin as inducer, ThS fluorescence) [%] | disaggregation of full-length Tau aggregates [1] [%] | Tau disaggregation by TEM (Tau PHFs) | Tau PHF disaggregation by TEM (Tau PHFs) | maximum inhibition of full-length Tau aggregation (full-length Tau; [2]) | effectiveness in inhibiting aggregation compared between complexes (full-length Tau; lower concentration)
Cobalt(II)(2,6-bis(piperazin-1-ylmethyl)pyridine)chloride [L1] | 97 | 74 | very negligible effect | destructed into shorter filaments | – | –
[Cl][Co][Cl].c1cc(CN2CCOCC2)nc(CN2CCOCC2)c1 [L2, Cobalt(II)(2,6-bis(morpholinomethyl)pyridine)chloride] | – | 72 | very negligible effect | destructed into shorter filaments | about 97% | more effective in comparison with L1 and L3
Cobalt(II)(2,6-bis((4-methylpiperazin-1-yl)methyl)pyridine)chloride [L3] | – | 77 | very negligible effect | destructed into shorter filaments | about 97% | –
